# According to PubChem BioAssay (NCI):
#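 Briefly, cells in 96-well plates were exposed to five compound concentrations for 48 h, and endpoints were estimated by linear interpolation. TGI denotes the concentration required for complete inhibition of growth.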
# What was measured:
# Experiment in all cases: growth of human tumour cells (NCI), 48 h
# RXF 393 renal = system: RXF 393 renal
# TK-10 renal = system: TK-10 renal
# SK-MEL-2 melanoma = system: SK-MEL-2 melanoma
# CAKI-1 renal = system: CAKI-1 renal
# RXF-631 renal = system: RXF-631 renal
# XF 498 CNS = system: XF 498 CNS
# U251 CNS = system: U251 CNS
# DMS 114 small cell lung = system: DMS 114 small cell lung
# A498 renal = system: A498 renal
# EKVX NSCLC = system: EKVX NSCLC
# OVCAR-4 ovarian = system: OVCAR-4 ovarian
# M14 melanoma = system: M14 melanoma
# LXFL 529 NSCLC = system: LXFL 529 NSCLC
# SF-539 CNS = system: SF-539 CNS
# OVCAR-3 ovarian = system: OVCAR-3 ovarian
# MALME-3M melanoma = system: MALME-3M melanoma
# SK-OV-3 ovarian = system: SK-OV-3 ovarian
# NCI-H522 lung = system: NCI-H522 lung
# OVCAR-8 ovarian = system: OVCAR-8 ovarian
# K-562 leukemia = system: K-562 leukemia
# CCRF-CEM leukemia = system: CCRF-CEM leukemia
# SN12C renal = system: SN12C renal
# NCI-H226 lung = system: NCI-H226 lung
# SF-295 CNS = system: SF-295 CNS
# HCT-15 colon = system: HCT-15 colon
# SW-620 colon = system: SW-620 colon
# COLO 205 colon = system: COLO 205 colon
# HOP-18 NSCLC = system: HOP-18 NSCLC
# HT29 colon = system: HT29 colon
# HL-60(TB) leukemia = system: HL-60(TB) leukemia
# UACC-257 melanoma = system: UACC-257 melanoma
# NCI-H460 lung = system: NCI-H460 lung
# UACC-62 melanoma = system: UACC-62 melanoma
# SF-268 CNS = system: SF-268 CNS
# M19-MEL melanoma = system: M19-MEL melanoma
# DMS 273 small cell lung = system: DMS 273 small cell lung
# KM20L2 colon = system: KM20L2 colon
# HOP-62 NSCLC = system: HOP-62 NSCLC
# 786-0 renal = system: 786-0 renal
# LOX IMVI melanoma = system: LOX IMVI melanoma
# A549 NSCLC = system: A549 NSCLC
# SNB-75 CNS = system: SNB-75 CNS
# KM12 colon = system: KM12 colon
# ACHN renal = system: ACHN renal
# SK-MEL-5 melanoma = system: SK-MEL-5 melanoma
# NCI-H23 lung = system: NCI-H23 lung
# OVCAR-5 ovarian = system: OVCAR-5 ovarian
# IGROV1 ovarian = system: IGROV1 ovarian
# RPMI-8226 leukemia = system: RPMI-8226 leukemia
# SNB-19 CNS = system: SNB-19 CNS
# SK-MEL-28 melanoma = system: SK-MEL-28 melanoma
# MOLT-4 leukemia = system: MOLT-4 leukemia
# UO-31 renal = system: UO-31 renal
# HOP-92 NSCLC = system: HOP-92 NSCLC
# HCC-2998 colon = system: HCC-2998 colon
# DLD-1 colon = system: DLD-1 colon
# HCT-116 colon = system: HCT-116 colon
# SR leukemia = system: SR leukemia
# SNB-78 CNS = system: SNB-78 CNS
structure (smiles),measurement,setting,value
O=[N+]([O-])c1nccn1CC(O)c1ccc(F)cc1 (stereo unspecified),TGI,RXF 393 renal,> 100 µM
same,TGI,TK-10 renal,> 100 µM
same,TGI,SK-MEL-2 melanoma,> 100 µM
same,TGI,CAKI-1 renal,> 100 µM
same,TGI,RXF-631 renal,> 100 µM
same,TGI,XF 498 CNS,> 100 µM
same,TGI,U251 CNS,> 100 µM
same,TGI,DMS 114 small cell lung,> 100 µM
same,TGI,A498 renal,> 100 µM
same,TGI,EKVX NSCLC,> 100 µM
same,TGI,OVCAR-4 ovarian,> 100 µM
same,TGI,M14 melanoma,> 100 µM
same,TGI,LXFL 529 NSCLC,> 100 µM
same,TGI,SF-539 CNS,> 100 µM
same,TGI,OVCAR-3 ovarian,> 100 µM
same,TGI,MALME-3M melanoma,> 100 µM
same,TGI,SK-OV-3 ovarian,> 100 µM
same,TGI,NCI-H522 lung,> 100 µM
same,TGI,OVCAR-8 ovarian,> 100 µM
same,TGI,K-562 leukemia,> 100 µM
same,TGI,CCRF-CEM leukemia,> 100 µM
same,TGI,SN12C renal,> 100 µM
same,TGI,NCI-H226 lung,> 100 µM
same,TGI,SF-295 CNS,> 100 µM
same,TGI,HCT-15 colon,> 100 µM
same,TGI,SW-620 colon,> 100 µM
same,TGI,COLO 205 colon,> 100 µM
same,TGI,HOP-18 NSCLC,> 100 µM
same,TGI,HT29 colon,> 100 µM
same,TGI,HL-60(TB) leukemia,> 100 µM
same,TGI,UACC-257 melanoma,> 100 µM
same,TGI,NCI-H460 lung,> 100 µM
same,TGI,UACC-62 melanoma,> 100 µM
same,TGI,SF-268 CNS,> 100 µM
same,TGI,M19-MEL melanoma,> 100 µM
same,TGI,DMS 273 small cell lung,> 100 µM
same,TGI,KM20L2 colon,> 100 µM
same,TGI,HOP-62 NSCLC,> 100 µM
same,TGI,786-0 renal,> 100 µM
same,TGI,LOX IMVI melanoma,> 100 µM
same,TGI,A549 NSCLC,> 100 µM
same,TGI,SNB-75 CNS,> 100 µM
same,TGI,KM12 colon,> 100 µM
same,TGI,ACHN renal,> 100 µM
same,TGI,SK-MEL-5 melanoma,> 100 µM
same,TGI,NCI-H23 lung,> 100 µM
same,TGI,OVCAR-5 ovarian,> 100 µM
same,TGI,IGROV1 ovarian,> 100 µM
same,TGI,RPMI-8226 leukemia,> 100 µM
same,TGI,SNB-19 CNS,> 100 µM
same,TGI,SK-MEL-28 melanoma,> 100 µM
same,TGI,MOLT-4 leukemia,> 100 µM
same,TGI,UO-31 renal,> 100 µM
same,TGI,HOP-92 NSCLC,> 100 µM
O=C1c2ccccc2C2(Br)C(=O)c3ccccc3C12 (stereo unspecified),TGI,RXF 393 renal,> 100 µM
same,TGI,TK-10 renal,> 100 µM
same,TGI,SK-MEL-2 melanoma,> 100 µM
same,TGI,HCC-2998 colon,> 100 µM
same,TGI,CAKI-1 renal,> 100 µM
same,TGI,RXF-631 renal,28.1 µM
same,TGI,U251 CNS,> 100 µM
same,TGI,DMS 114 small cell lung,> 100 µM
same,TGI,EKVX NSCLC,> 100 µM
same,TGI,OVCAR-4 ovarian,> 100 µM
same,TGI,M14 melanoma,> 100 µM
same,TGI,LXFL 529 NSCLC,> 100 µM
same,TGI,SF-539 CNS,> 100 µM
same,TGI,OVCAR-3 ovarian,> 100 µM
same,TGI,MALME-3M melanoma,> 100 µM
same,TGI,SK-OV-3 ovarian,> 100 µM
same,TGI,NCI-H522 lung,> 100 µM
same,TGI,OVCAR-8 ovarian,> 100 µM
same,TGI,K-562 leukemia,> 100 µM
same,TGI,CCRF-CEM leukemia,> 100 µM
same,TGI,SN12C renal,> 100 µM
same,TGI,SF-295 CNS,> 100 µM
same,TGI,HCT-15 colon,> 100 µM
same,TGI,SW-620 colon,> 100 µM
same,TGI,COLO 205 colon,> 100 µM
same,TGI,HOP-18 NSCLC,> 100 µM
same,TGI,HT29 colon,> 100 µM
same,TGI,HL-60(TB) leukemia,> 100 µM
same,TGI,UACC-257 melanoma,> 100 µM
same,TGI,NCI-H460 lung,> 100 µM
same,TGI,UACC-62 melanoma,> 100 µM
same,TGI,SF-268 CNS,> 100 µM
same,TGI,M19-MEL melanoma,> 100 µM
same,TGI,DMS 273 small cell lung,42.5 µM
same,TGI,KM20L2 colon,> 100 µM
same,TGI,HOP-62 NSCLC,> 100 µM
same,TGI,786-0 renal,> 100 µM
same,TGI,LOX IMVI melanoma,26.4 µM
same,TGI,A549 NSCLC,> 100 µM
same,TGI,SNB-75 CNS,> 100 µM
same,TGI,KM12 colon,> 100 µM
same,TGI,ACHN renal,> 100 µM
same,TGI,SK-MEL-5 melanoma,> 100 µM
same,TGI,NCI-H23 lung,> 100 µM
same,TGI,OVCAR-5 ovarian,> 100 µM
same,TGI,IGROV1 ovarian,> 100 µM
same,TGI,RPMI-8226 leukemia,> 100 µM
same,TGI,DLD-1 colon,> 100 µM
same,TGI,SK-MEL-28 melanoma,> 100 µM
same,TGI,MOLT-4 leukemia,> 100 µM
same,TGI,UO-31 renal,> 100 µM
same,TGI,HOP-92 NSCLC,> 100 µM
O=C(/C=C/c1ccc(O)cc1)OC[C@@H](O)COC1OC(CO)C(O)C(O)C1O (stereo partly specified),TGI,RXF 393 renal,> 100 µM
same,TGI,TK-10 renal,> 100 µM
same,TGI,RXF-631 renal,> 100 µM
same,TGI,U251 CNS,> 100 µM
same,TGI,DMS 114 small cell lung,> 100 µM
same,TGI,A498 renal,> 100 µM
same,TGI,EKVX NSCLC,> 100 µM
same,TGI,M14 melanoma,> 100 µM
same,TGI,HCT-116 colon,> 100 µM
same,TGI,SK-OV-3 ovarian,> 100 µM
same,TGI,NCI-H522 lung,> 100 µM
same,TGI,OVCAR-8 ovarian,> 100 µM
same,TGI,K-562 leukemia,> 100 µM
same,TGI,CCRF-CEM leukemia,> 100 µM
same,TGI,SR leukemia,> 100 µM
same,TGI,NCI-H226 lung,> 100 µM
same,TGI,SF-295 CNS,> 100 µM
same,TGI,HT29 colon,> 100 µM
same,TGI,HL-60(TB) leukemia,> 100 µM
same,TGI,UACC-257 melanoma,> 100 µM
same,TGI,NCI-H460 lung,> 100 µM
same,TGI,M19-MEL melanoma,> 100 µM
same,TGI,HOP-62 NSCLC,> 100 µM
same,TGI,A549 NSCLC,> 100 µM
same,TGI,KM12 colon,> 100 µM
same,TGI,ACHN renal,> 100 µM
same,TGI,SNB-78 CNS,> 100 µM
same,TGI,NCI-H23 lung,> 100 µM
same,TGI,OVCAR-5 ovarian,> 100 µM
same,TGI,IGROV1 ovarian,> 100 µM
same,TGI,SNB-19 CNS,> 100 µM
same,TGI,SK-MEL-28 melanoma,> 100 µM
same,TGI,MOLT-4 leukemia,> 100 µM
same,TGI,UO-31 renal,> 100 µM
same,TGI,HOP-92 NSCLC,> 100 µM
CC1=Nc2ccccc2C1C(Cc1ccccc1N)c1c(C)[nH]c2ccccc12 (stereo unspecified),TGI,RXF 393 renal,35.1 µM
same,TGI,TK-10 renal,30.8 µM
same,TGI,SK-MEL-2 melanoma,23 µM
same,TGI,HCC-2998 colon,30.2 µM
same,TGI,RXF-631 renal,44.4 µM
same,TGI,XF 498 CNS,32.5 µM
same,TGI,U251 CNS,32.4 µM
same,TGI,DMS 114 small cell lung,33.5 µM
same,TGI,A498 renal,29.8 µM
same,TGI,EKVX NSCLC,37.7 µM
same,TGI,M14 melanoma,28.3 µM
same,TGI,HCT-116 colon,30.6 µM
same,TGI,LXFL 529 NSCLC,32.2 µM
same,TGI,SF-539 CNS,31.5 µM
same,TGI,OVCAR-3 ovarian,31.4 µM
same,TGI,MALME-3M melanoma,31 µM
same,TGI,SK-OV-3 ovarian,53.3 µM
same,TGI,NCI-H522 lung,31.6 µM
same,TGI,OVCAR-8 ovarian,32.6 µM
same,TGI,K-562 leukemia,43.2 µM
same,TGI,CCRF-CEM leukemia,47.2 µM
same,TGI,SR leukemia,50.3 µM
same,TGI,SN12C renal,33.6 µM
same,TGI,NCI-H226 lung,32.9 µM
same,TGI,SF-295 CNS,25.8 µM
same,TGI,HCT-15 colon,51 µM
same,TGI,SW-620 colon,34.7 µM
same,TGI,COLO 205 colon,30.2 µM
same,TGI,HOP-18 NSCLC,24.8 µM
same,TGI,HT29 colon,33.1 µM
same,TGI,HL-60(TB) leukemia,35.7 µM
same,TGI,UACC-257 melanoma,32.4 µM
same,TGI,NCI-H460 lung,35.2 µM
same,TGI,UACC-62 melanoma,26.3 µM
same,TGI,SF-268 CNS,21.5 µM
same,TGI,M19-MEL melanoma,33.1 µM
same,TGI,KM20L2 colon,28.2 µM
same,TGI,HOP-62 NSCLC,27.9 µM
same,TGI,786-0 renal,28.6 µM
same,TGI,LOX IMVI melanoma,28.2 µM
same,TGI,A549 NSCLC,32.8 µM
same,TGI,SNB-75 CNS,34.8 µM
same,TGI,KM12 colon,31.7 µM
same,TGI,ACHN renal,30.1 µM
same,TGI,SK-MEL-5 melanoma,27.8 µM
same,TGI,NCI-H23 lung,33.6 µM
same,TGI,OVCAR-5 ovarian,31.6 µM
same,TGI,IGROV1 ovarian,36 µM
same,TGI,RPMI-8226 leukemia,52.4 µM
same,TGI,DLD-1 colon,35.4 µM
same,TGI,SNB-19 CNS,41.6 µM
same,TGI,SK-MEL-28 melanoma,32.8 µM
same,TGI,MOLT-4 leukemia,53.4 µM
same,TGI,UO-31 renal,31.8 µM
same,TGI,HOP-92 NSCLC,26.1 µM
